From PubChem BioAssay (NCI)
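Cultured in 96-well plates, cells were exposed to test compound for 48 hours across five concentrations. The concentration for full growth arrest is given as TGI.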

Tests used:
Assay in all cases: inhibition of tumour cell growth, NCI panel, 48 h
HT29 colon = tested on: HT29 colon
SK-OV-3 ovarian = tested on: SK-OV-3 ovarian
UACC-62 melanoma = tested on: UACC-62 melanoma
BT-549 breast = tested on: BT-549 breast
HOP-92 NSCLC = tested on: HOP-92 NSCLC
A549 NSCLC = tested on: A549 NSCLC
SF-295 CNS = tested on: SF-295 CNS
HCT-15 colon = tested on: HCT-15 colon
COLO 205 colon = tested on: COLO 205 colon
A498 renal = tested on: A498 renal
OVCAR-8 ovarian = tested on: OVCAR-8 ovarian
HOP-62 NSCLC = tested on: HOP-62 NSCLC
SK-MEL-2 melanoma = tested on: SK-MEL-2 melanoma
T-47D breast = tested on: T-47D breast
RXF 393 renal = tested on: RXF 393 renal
OVCAR-4 ovarian = tested on: OVCAR-4 ovarian
TK-10 renal = tested on: TK-10 renal
SN12C renal = tested on: SN12C renal
MDA-MB-231 breast = tested on: MDA-MB-231 breast
ACHN renal = tested on: ACHN renal
EKVX NSCLC = tested on: EKVX NSCLC
HCC-2998 colon = tested on: HCC-2998 colon
HCT-116 colon = tested on: HCT-116 colon
K-562 leukemia = tested on: K-562 leukemia
SNB-19 CNS = tested on: SNB-19 CNS
UO-31 renal = tested on: UO-31 renal
OVCAR-3 ovarian = tested on: OVCAR-3 ovarian
PC-3 prostate = tested on: PC-3 prostate
MALME-3M melanoma = tested on: MALME-3M melanoma
SK-MEL-28 melanoma = tested on: SK-MEL-28 melanoma
UACC-257 melanoma = tested on: UACC-257 melanoma
CAKI-1 renal = tested on: CAKI-1 renal
SW-620 colon = tested on: SW-620 colon
OVCAR-5 ovarian = tested on: OVCAR-5 ovarian
LOX IMVI melanoma = tested on: LOX IMVI melanoma
SF-268 CNS = tested on: SF-268 CNS
NCI/ADR-RES ovarian = tested on: NCI/ADR-RES ovarian
NCI-H522 lung = tested on: NCI-H522 lung
U251 CNS = tested on: U251 CNS
RPMI-8226 leukemia = tested on: RPMI-8226 leukemia
SNB-75 CNS = tested on: SNB-75 CNS
KM12 colon = tested on: KM12 colon
MDA-MB-435 = tested on: MDA-MB-435
M14 melanoma = tested on: M14 melanoma
SF-539 CNS = tested on: SF-539 CNS
NCI-H23 lung = tested on: NCI-H23 lung
786-0 renal = tested on: 786-0 renal
HS 578T breast = tested on: HS 578T breast
MDA-N = tested on: MDA-N
NCI-H460 lung = tested on: NCI-H460 lung
IGROV1 ovarian = tested on: IGROV1 ovarian
NCI-H226 lung = tested on: NCI-H226 lung
SK-MEL-5 melanoma = tested on: SK-MEL-5 melanoma

Measured: TGI

COc1ccc(Cc2c(N)[nH]c(=O)[nH]c2=O)cc1
> 100 µM: all assays above
